# Measurements as given in ChEMBL document CHEMBL1142119, “Cytotoxic alkylpiperidine alkaloids from the Brazilian marine sponge Pachychalina alcaloidifera” (J Nat Prod, 2007).
# Legend:
# Assay type in all cases: cell-based
# HL-60 = assay: Cytotoxicity against human HL60 cells by MTT assay
# [1] = Cytotoxicity against human MDA-MB435 cells by MTT assay; conditions: mda-mb-435
# HCT-8 = assay: Cytotoxicity against human HCT8 cells by MTT assay
# SF-295 = assay: Cytotoxicity against human SF295 cells by MTT assay
SMILES,Activity (HL-60) [µg/mL],Activity [1] [µg/mL],Activity (HCT-8) [µg/mL],Activity (SF-295) [µg/mL]
OC1\C=C/C=C/C=C/CC[C@H]2CN3CCCCCCCCCCCC[C@H]4C[C@H](CN(C1)C4)[C@@H]2CC3 (stereo partly specified),6.9,3.1,> 25,8.7
OC1/C=C\C=C/CCCCCC[C@H]2CN3CC/C=C\CCCCCCC4C[C@@H](CN(C1)C4)[C@H]2CC3 (stereo partly specified) [ARENOSCLERIN D],2.1,1.2,6.2,5.9
C1=C\CCCCC[C@H]2CN3CC/C=C\CCCCCC[C@@H]4C[C@@H](CN(CC/C=C\C/1)C4)[C@H]2CC3 [HALICLONACYCLAMINE F],2.2,1,8.6,4.5
O[C@H]1/C2=C\C/C=C/C=C\C=C/CCN3CC45CCCCCCCCCCCCN(CC1C4CC23)C5 (stereo partly specified) [MADANGAMINE F],16.7,16.2,> 25,19.8
